According to patent publication US20090252814A1, “USE OF XENON FOR ORGAN PROTECTION” (priority 2005, published 2009):

Columns and labels:
[1] = test system: HIF-1α; assay: HIF-1α expression in the kidney after exposure to xenon (western blot); format: in vivo, C57BL/6J mice; conditions: adult mice, 75% xenon 2 h by inhalation, kidneys harvested 0-24 h after
Experimental: Studies were performed on adult 8- to 12-wk-old C57BL/6J mice (Jackson Labs, Bar Harbor, Me.) that were fed a standard laboratory diet. All procedures were approved by the Home Office.
The mice were exposed to 75% xenon for two hours. The xenon gas was administered to the mice by inhalation. The kidneys of said mice were then harvested as described below between 0-24 hours after exposure to the xenon gas.
Once sacrificed, the kidneys were harvested and frozen at −80° C. […] Protein concentration in the supernatant was determined by DC (detergent-compatible) protein assay (Bio-Rad, Herts, UK), based on the Lowry method. […]
After washing in TBS-T the membrane was incubated with the appropriate goat-derived horseradish peroxidase-conjugated secondary antibody at room temperature for 1½ hours to detect the primary antibodies. The immunoreactive bands were visualised with the enhanced chemiluminescence system and detected on X-ray film. The results were quantified by densitometry as an x-fold increase relative to the control without xenon—the amount of protein applied was normalised by the densitometry of the tubulin (which was unaltered by the intervention itself). […]

[2] = xenon gas; cited from earlier work
[3] = test system: brain; conditions: administered 4 hours after hypoxic-ischaemic injury, neonatal rats; cited from earlier work
[4] = test system: erythropoietin (EPO); assay: EPO RNA expression in neonatal rat brain (RT-PCR); format: in vivo, Sprague Dawley rats; conditions: neonatal rat brains, 75% xenon 2 h, harvested 0-24 h after
Experimental: Neonatal rats (7 days) Sprague Dawley rats were used. All procedures were approved by the Home Office.
C=Rat hippocampal brain control stored in −80° C. 0=Rat hippocampal brain treated with xenon for 2 hrs, sacrificed immediately after and stored in −80° C. 2=Rat hippocampal brain treated with xenon for 2 hrs, sacrificed 2 hrs later and stored in −80° C. 4=Rat hippocampal brain treated with xenon for 2 hrs, sacrificed 4 hrs later and stored in −80° C. 8=Rat hippocampal brain treated with xenon for 2 hrs, sacrificed 8 hrs later and stored in −80° C. 24=Rat hippocampal brain treated with xenon for 2 hrs, sacrificed 24 hrs later and stored in −80° C. P2=Rat hippocampal brain positive control with ischaemia injury for 45 mins, harvested after 24 hrs, stored in −80° C.
Total RNA was extracted from neonatal rat brains.
Reverse transcription of the RNA in order to obtain the first-strand cDNA was carried out using techniques well known in the art. […]
The resulting PCR amplification products were electrophoresed on a 1×TAE agarose gel in 1×TAE buffer and visualised using Fluor-S MultiImager BIORAD. […] As the level of fluorescence is approximately proportional to the amount of intercalated ethidium bromide, the abundance of amplified DNA within samples can be compared; in other words, the level of expression of a gene of interest can be determined. […]

[5] = test system: PHD2; assay: PHD2 expression in adult mice brains (western blot); format: in vivo, C57BL/6J mice; conditions: 75% xenon and 25% oxygen 2 h, harvested 0-48 h after
Experimental: Studies were performed on 8- to 12-wk-old C57BL/6J mice (Jackson Labs, Bar Harbor, Me.) that were fed a standard laboratory diet. All procedures were approved by the Home Office.
The mice were exposed to 75% xenon and 25% oxygen for two hours. The xenon gas was administered to the mice by inhalation. The brains of said adult mice were then harvested as described below between 0-48 hours after exposure to the xenon gas.
The tissues were homogenised and western blots of adult mice brain samples were carried out as described in Example 1.
The primary antibody was monoclonal mouse anti-PHD2 antibody.

## [Xe] [xenon]
[1]
  HIF-1α expression in the kidneys: time-dependent increase
[2]
  specific gravity or density: 5.887 g/L
[3]
  neuroprotection by combination of xenon and hypothermia: synergistic neuroprotection
[4]
  EPO expression (RNA): time-dependent increase
[5]
  expression of PHD2: time-dependent reduction
